Measurements: US12403137B2, “Compounds and methods of use” (Tango Therapeutics, Inc., priority 2019, dated 2025)

Key:
PRMT5 [1] = target: T1, PRMT5 (Homo sapiens, UniProt O14744); assay: PRMT5 inhibition assay with SAM as cofactor; assay type: biochemical; conditions: against PRMT5 in the presence of SAM as cofactor
T1 construct: purchased Viva (custom protein)
From the text: (§1) The Ki values can be calculated from the IC50 values as described in the Examples section. As detailed in the Examples section, for the assay performed in the presence of SAM, IC50=Ki×1.5 (Ki=IC50/1.5). For the assay performed in the presence of MTA, IC50=Ki×13.5 (Ki=IC50/13.5). Column 6 indicates the ratio between the Ki of compounds in the presence of SAM and the Ki of compounds in the presence of MTA

PRMT5 [2] = target: T1, PRMT5; assay: PRMT5 inhibition assay with no cofactor; assay type: biochemical; conditions: against PRMT5 with no cofactor; read-out: No Co-factor IC50
PRMT5 [3] = target: T1, PRMT5; assay: PRMT5 inhibition assay with MTA as cofactor; assay type: biochemical; conditions: for IC50: against PRMT5 with MTA as cofactor; for SAM/MTA Ratio: ratio of Ki in the presence of SAM to Ki in the presence of MTA, Ki=IC50/1.5 (SAM), Ki=IC50/13.5 (MTA)
From the text: as §1

[4] = system: HAP1 MTAP-intact cell line; assay: SDMA in-cell western assay, HAP1 MTAP-intact; assay type: cell-based; conditions: Homo sapiens
Protocol: (§2) Table 1 also indicates IC50 values in an MTAP-isogenic cell line pair for exemplary compounds in an SDMA in-cell western assay (columns 7-8). HAP1 MTAP-intact is a cell line in which endogenous levels of MTAP are expressed, and HAP1 MTAP-deleted is an MTAP-null cell line. For Table 1, “a*” and “aa*” indicates an IC50 of <1 μM, “b*” and “bb*” indicates an IC50 equal to or greater than 1 μM but less than 10 μM, and “c*” and “cc*” indicates an IC50 of greater than or equal to 10 μM in the HAP1 MTAP-intact and the HAP1 MTAP-deleted assays, respectively. In column 9, “A*” indicates an IC50 ratio greater than or equal to 10 fold between the IC50 in the HAP1 MTAP-intact cell line and the HAP1 MTAP-deleted cell line; “B*” indicates an IC50 ratio greater than or equal to 3 fold but lower than 10 fold between the IC50 in the HAP1 MTAP-intact cell line and the HAP1 MTAP-deleted cell line; “C*” indicates an IC50 ratio of less than 3 fold between the IC50 in the HAP1 MTAP-intact cell line and the HAP1 MTAP-deleted cell line. Compounds with a ratio in the SDMA in-cell western assay of equal to or greater than 3 fold are considered MTAP-selective.

[5] = system: HAP1 MTAP-deleted cell line; assay: SDMA in-cell western assay, HAP1 MTAP-deleted; assay type: cell-based; conditions: for IC50: Homo sapiens, HAP1 MTAP-deleted (MTAP-null) cell line; for MTAP Intact/Deleted Ratio: IC50 ratio HAP1 MTAP-intact / HAP1 MTAP-deleted, >=3 fold considered MTAP-selective
Protocol: as §2

T1 sequence (O14744 whole entry): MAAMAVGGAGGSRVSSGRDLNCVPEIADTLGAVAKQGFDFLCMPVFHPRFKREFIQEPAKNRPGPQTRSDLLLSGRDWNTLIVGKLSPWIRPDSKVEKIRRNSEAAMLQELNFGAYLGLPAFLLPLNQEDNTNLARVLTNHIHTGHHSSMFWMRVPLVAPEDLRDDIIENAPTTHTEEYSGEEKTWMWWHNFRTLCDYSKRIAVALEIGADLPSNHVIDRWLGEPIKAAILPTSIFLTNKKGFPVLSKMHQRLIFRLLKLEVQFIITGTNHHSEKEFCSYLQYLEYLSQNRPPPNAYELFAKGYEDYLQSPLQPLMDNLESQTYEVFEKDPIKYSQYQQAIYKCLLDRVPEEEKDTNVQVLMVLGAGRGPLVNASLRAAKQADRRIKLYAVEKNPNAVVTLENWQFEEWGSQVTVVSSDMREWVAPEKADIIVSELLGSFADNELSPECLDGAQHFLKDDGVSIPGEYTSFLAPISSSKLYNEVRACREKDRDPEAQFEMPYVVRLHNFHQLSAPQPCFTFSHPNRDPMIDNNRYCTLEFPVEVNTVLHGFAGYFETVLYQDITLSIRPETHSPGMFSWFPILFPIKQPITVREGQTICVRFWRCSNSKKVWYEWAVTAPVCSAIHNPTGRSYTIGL
T1 sequence (Q9BQA1 whole entry partner): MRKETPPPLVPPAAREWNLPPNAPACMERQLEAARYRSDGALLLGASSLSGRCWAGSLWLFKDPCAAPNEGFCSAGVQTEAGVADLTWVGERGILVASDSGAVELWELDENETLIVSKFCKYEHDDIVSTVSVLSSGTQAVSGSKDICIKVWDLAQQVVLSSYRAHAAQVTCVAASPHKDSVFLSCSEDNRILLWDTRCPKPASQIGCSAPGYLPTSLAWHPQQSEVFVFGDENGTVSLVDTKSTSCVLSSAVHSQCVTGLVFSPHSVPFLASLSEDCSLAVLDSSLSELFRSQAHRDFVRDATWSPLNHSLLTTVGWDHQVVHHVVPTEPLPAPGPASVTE

Row | SMILES | IC50 (PRMT5 [1]) | IC50 (PRMT5 [2]) | IC50 (PRMT5 [3]) | SAM/MTA Ratio (PRMT5 [3]) | IC50 [4] | IC50 [5] | MTAP Intact/Deleted Ratio [5]
1 | CCOc1cc(C(=O)N2[C@@H]3CCC[C@H]2COC3)ccc1C(=O)NC[C@@H](O)[C@@H]1Cc2ccc(OCc3ccnn3C)cc2CN1 [Compound 6, 4-((1R,5S)-3-oxa-9-azabicyclo[3.3.1]nonane-9-carbonyl)-2-ethoxy-N—((R)-2-hydroxy-2-((S)-7-((1-methyl-1H-pyrazol-5-yl)methoxy)-1,2,3,4-tetrahydroisoquinolin-3-yl)ethyl)benzamide] | 50 to 500 nM | 500 to 5000 nM | 50 to 500 nM | A (a Ki ratio greater than or equal to 10 fold between the Ki in the presence of SAM and the Ki in the presence of MTA) | < 1000 nM | < 1000 nM | C* (an IC50 ratio of less than 3 fold between the IC50 in the HAP1 MTAP-intact cell line and the HAP1 MTAP-deleted cell line)
2 | O=C(NC[C@@H](O)[C@@H]1Cc2ccc(OCc3cnco3)cc2CN1)c1ccc(C(=O)N2[C@@H]3CCC[C@H]2COC3)cc1 [Compound 7, 4-((1R,5S)-3-oxa-9-azabicyclo[3.3.1]nonane-9-carbonyl)-N—((R)-2-hydroxy-2-((S)-7-(oxazol-5-ylmethoxy)-1,2,3,4-tetrahydroisoquinolin-3-yl)ethyl)benzamide] | 50 to 500 nM | 500 to 5000 nM | 50 to 500 nM | A (a Ki ratio greater than or equal to 10 fold between the Ki in the presence of SAM and the Ki in the presence of MTA) | ≥ 10000 nM | 1000 to 10000 nM | B* (an IC50 ratio greater than or equal to 3 fold but lower than 10 fold between the IC50 in the HAP1 MTAP-intact cell line and the HAP1 MTAP-deleted cell line)
3 | Cc1ncoc1COc1ccc2c(c1)CN[C@H]([C@H](O)CNC(=O)c1ccc(C(=O)N3[C@@H]4CCC[C@H]3COC4)cc1)C2 [Compound 8, 4-((1R,5S)-3-oxa-9-azabicyclo[3.3.1]nonane-9-carbonyl)-N—((R)-2-hydroxy-2-((S)-7-((4-methyloxazol-5-yl)methoxy)-1,2,3,4-tetrahydroisoquinolin-3-yl)ethyl)benzamide] | 50 to 500 nM | 50 to 500 nM | 50 to 500 nM | A (a Ki ratio greater than or equal to 10 fold between the Ki in the presence of SAM and the Ki in the presence of MTA) | 1000 to 10000 nM | < 1000 nM | A* (an IC50 ratio greater than or equal to 10 fold between the IC50 in the HAP1 MTAP-intact cell line and the HAP1 MTAP-deleted cell line)
4 | Cn1nccc1COc1ccc2c(c1)CN[C@H]([C@H](O)CNC(=O)c1ccc(C(=O)N3[C@@H]4CCC[C@H]3COC4)cc1)C2 [Compound 9, 4-((1R,5S)-3-oxa-9-azabicyclo[3.3.1]nonane-9-carbonyl)-N—((R)-2-hydroxy-2-((S)-7-((1-methyl-1H-pyrazol-5-yl)methoxy)-1,2,3,4-tetrahydroisoquinolin-3-yl)ethyl)benzamide] | 50 to 500 nM | 500 to 5000 nM | 50 to 500 nM | A (a Ki ratio greater than or equal to 10 fold between the Ki in the presence of SAM and the Ki in the presence of MTA) | ≥ 10000 nM | 1000 to 10000 nM | B* (an IC50 ratio greater than or equal to 3 fold but lower than 10 fold between the IC50 in the HAP1 MTAP-intact cell line and the HAP1 MTAP-deleted cell line)
5 | CCOc1cc(C(=O)N2[C@@H]3CCC[C@H]2COC3)ccc1C(=O)NC[C@@H](O)[C@@H]1Cc2ccc(OCc3ocnc3C)cc2CN1 [Compound 10, 4-((1R,5S)-3-oxa-9-azabicyclo[3.3.1]nonane-9-carbonyl)-2-ethoxy-N—((R)-2-hydroxy-2-((S)-7-((4-methyloxazol-5-yl)methoxy)-1,2,3,4-tetrahydroisoquinolin-3-yl)ethyl)benzamide] | 50 to 500 nM | 50 to 500 nM | < 50 nM | A (a Ki ratio greater than or equal to 10 fold between the Ki in the presence of SAM and the Ki in the presence of MTA) | 1000 to 10000 nM | < 1000 nM | A* (an IC50 ratio greater than or equal to 10 fold between the IC50 in the HAP1 MTAP-intact cell line and the HAP1 MTAP-deleted cell line)
6 | CCOc1cc(C(=O)N2C3CCC2COC3)ccc1C(=O)NC[C@@H](O)[C@@H]1Cc2ccc(OCc3cnco3)cc2CN1 [Compound 11, 4-(3-oxa-8-azabicyclo[3.2.1]octane-8-carbonyl)-2-ethoxy-N—((R)-2-hydroxy-2-((S)-7-(oxazol-5-ylmethoxy)-1,2,3,4-tetrahydroisoquinolin-3-yl)ethyl)benzamide] | 50 to 500 nM | 500 to 5000 nM | 50 to 500 nM | A (a Ki ratio greater than or equal to 10 fold between the Ki in the presence of SAM and the Ki in the presence of MTA) | 1000 to 10000 nM | < 1000 nM | B* (an IC50 ratio greater than or equal to 3 fold but lower than 10 fold between the IC50 in the HAP1 MTAP-intact cell line and the HAP1 MTAP-deleted cell line)
7 | CCOc1cc(C(=O)N2C3CCC2COC3)ccc1C(=O)NC[C@@H](O)[C@@H]1Cc2ccc(OCc3ocnc3C)cc2CN1 [Compound 12, 4-(3-oxa-8-azabicyclo[3.2.1]octane-8-carbonyl)-2-ethoxy-N—((R)-2-hydroxy-2-((S)-7-((4-methyloxazol-5-yl)methoxy)-1,2,3,4-tetrahydroisoquinolin-3-yl)ethyl)benzamide] | 50 to 500 nM | 500 to 5000 nM | 50 to 500 nM | A (a Ki ratio greater than or equal to 10 fold between the Ki in the presence of SAM and the Ki in the presence of MTA) | < 1000 nM | < 1000 nM | B* (an IC50 ratio greater than or equal to 3 fold but lower than 10 fold between the IC50 in the HAP1 MTAP-intact cell line and the HAP1 MTAP-deleted cell line)
8 | CCOc1cc(C(=O)N2[C@@H]3CCC[C@H]2COC3)ccc1C(=O)NC[C@@H](O)[C@@H]1Cc2ccc(OCc3cnco3)cc2CN1 [Compound 13, 4-((1R,5S)-3-oxa-9-azabicyclo[3.3.1]nonane-9-carbonyl)-2-ethoxy-N—((R)-2-hydroxy-2-((S)-7-(oxazol-5-ylmethoxy)-1,2,3,4-tetrahydroisoquinolin-3-yl)ethyl)benzamide] | 50 to 500 nM | 500 to 5000 nM | 50 to 500 nM | A (a Ki ratio greater than or equal to 10 fold between the Ki in the presence of SAM and the Ki in the presence of MTA) | 1000 to 10000 nM | < 1000 nM | A* (an IC50 ratio greater than or equal to 10 fold between the IC50 in the HAP1 MTAP-intact cell line and the HAP1 MTAP-deleted cell line)
9 | CCOc1nc(N2CCN(C(=O)OC)CC2)ccc1C(=O)NC[C@@H](O)[C@@H]1Cc2ccc(OCc3cnco3)cc2CN1 [Compound 16, methyl 4-(6-ethoxy-5-(((R)-2-hydroxy-2-((S)-7-(oxazol-5-ylmethoxy)-1,2,3,4-tetrahydroisoquinolin-3-yl)ethyl)carbamoyl)pyridin-2-yl)piperazine-1-carboxylate] | 50 to 500 nM | 50 to 500 nM | < 50 nM | A (a Ki ratio greater than or equal to 10 fold between the Ki in the presence of SAM and the Ki in the presence of MTA) | 1000 to 10000 nM | < 1000 nM | B* (an IC50 ratio greater than or equal to 3 fold but lower than 10 fold between the IC50 in the HAP1 MTAP-intact cell line and the HAP1 MTAP-deleted cell line)
10 | CCOc1nc(N2CCN(C(=O)OC)CC2)ccc1C(=O)NC[C@@H](O)[C@@H]1Cc2ccc(OCc3ocnc3C)cc2CN1 [Compound 17, methyl 4-(6-ethoxy-5-(((R)-2-hydroxy-2-((S)-7-((4-methyloxazol-5-yl)methoxy)-1,2,3,4-tetrahydroisoquinolin-3-yl)ethyl)carbamoyl)pyridin-2-yl)piperazine-1-carboxylate] | 50 to 500 nM | 50 to 500 nM | < 50 nM | A (a Ki ratio greater than or equal to 10 fold between the Ki in the presence of SAM and the Ki in the presence of MTA) | 1000 to 10000 nM | < 1000 nM | A* (an IC50 ratio greater than or equal to 10 fold between the IC50 in the HAP1 MTAP-intact cell line and the HAP1 MTAP-deleted cell line)
